From patent publication US20180134726A1, “PLANT GROWTH REGULATING COMPOUNDS” (Syngenta Participations AG, priority 2012, published 2018)

Experiments:
[1] = test system: Orobanche cumana Wallr. seeds (race 'F'); test: Orobanche cumana seed germination test on glass fiber filter paper; format: in vivo; conditions: preconditioned seeds, seed lot IN153, 10 days at 20° C. in the dark, mean, N = 5 × 100 seeds
Method: The effect of compounds of Formula (I) on germination of Orobanche cumana Wallr. seeds was evaluated on glass fiber filter paper (GFFP) in petri dishes. Seeds were preconditioned at moisture and suitable temperature to become responsive to the specific chemical germination stimulants.
Test compounds were dissolved in DMSO (10 000 mg l^−1) and stored at room temperature in a desiccators with desiccants. The stock solutions were dissolved with deionised water to the appropriate final test concentration.
Seeds of O. cumana race ‘F’ were collected from sunflower fields in Manzanilla (Seville, Spain) in 2008 (seed lot IN153) and stored at room temperature. To separate seeds from heavy organic debris, a modified sucrose floatation technique as described by Hartman & Tanimonure (Plant Disease (1991), 75, p. 494) was applied. Seeds were filled into a separation funnel and stirred in water. When seeds floated to the surface, the water fraction containing heavy debris was discarded. Seeds were re-suspended in 2.5M sucrose solution (specific gravity of 1.20) and heavy debris was allowed to settle down for 60 min. After removing debris, seeds were disinfected in 1% sodium hypochlorite solution and 0.025% (v/v) Tween 20 for 2 min. The seeds were decanted onto two layers of cheesecloth, rinsed with sterile deionised water and re-suspended in sterile deionised water. Two ml of the seed suspension containing approximately 150-400 seeds were spread evenly on two layers of sterile glass fiber filter paper disc ([…]) in Petri dishes (Ø9 cm). After wetting the discs with 3 ml sterile deionised water, petri dishes were sealed with parafilm. Seeds were incubated for 10 days at 20° C. in the dark for seed conditioning. The upper disc with conditioned seeds was briefly dried, transferred to a petri dish lined with a dry GFFP disc, and wetted with 6 ml of the appropriate test solution. The compounds of Formula (I) were tested at concentrations of 0.001, 0.01, and 0.1 mg l^−1. The strigolactone analogue GR24 (commercially available as a mixture of isomers) was included as positive control and 0.001% DMSO as negative control. All treatments were tested in five replicates. Seeds were re-incubated at 20° C. in the dark and examined for germination 10 days later. The radicles of germinated seeds were stained for 5 min with blue ink (MIGROS, Switzerland) in 5% acetic acid according to Long et al. (Seed Science Research (2008), 18, p. 125). After staining, seeds were scanned using a flatbed scanner with an optical resolution of 1200 dpi (PULSTEK, OpticPro ST28) or photographed using a camera stand mounted with a digital SLR camera (Canon EOS 5D). Germination of 100 seeds per replicate was evaluated on digital images. Seeds were considered germinated when the radicle protruded from the seed coat.

[2] = test system: Brassica oleracea cv Botrytis (temperate cauliflower Spacestar) seeds; test: Cauliflower paper germination test under suboptimal conditions; format: in vivo; conditions: 25 μM, 10° C. and in the light
Method: The effect of compounds of Formula (I) on the germination of Brassica oleracea cv Botrytis or common cauliflower was tested on two types of cauliflowers: temperate types and tropical types. These two types were chosen because they display different sensitivities to the light conditions and temperature during germination. Germination of a sensitive temperate type is inhibited by light at 10° C. while for the tropical types germination at 20° is stimulated by the presence of light. […] The temperate seed batches tested are part of commercially produced seed batches of various varieties which are known to be sensitive to light at 10° C. These seeds were harvested and cleaned according standard commercial procedures. Ready seed batches were used (Ready indicates the processing level of these seeds: they have been cleaned and sized but received no other treatments). The tropical seed batches tested are part of seed batches produced as basic seed (for maintenance of the parental line) and were processed accordingly. Germination was assessed using the standard paper germination test for Brassica: Fifty seeds were placed on blue germination paper, which was moistened with the appropriate solutions, in closed oblong germination boxes. Each condition was tested in duplo. Germination boxes were placed in controlled germination cabinets with the appropriate temperature and light conditions. Germination of seeds was counted at regular intervals. Seeds were considered to be germinated when the radical had protruded the testa and endosperm (radical size approximately 1 mm). Test compounds were dissolved in DMSO at a concentration of 50 mM and stored at −20° C. The strigolactone analogue GR24 (commercially available as a racemic mixture of 2 diastereoisomers, referred to as “synthetic strigolactone GR-24” and first prepared by Johnson A. W. & all, Journal of the Chemical Society, Perkin Transactions 1, 1981, page 1734-1743) was included as positive control. Germination solutions were prepared by diluting the stock solutions with demineralized water till 25 μM. As control solutions demineralized water and a 0.05% v/v DMSO solution were used.

[3] = Spacestar seed batch 11B313 (cold-sensitive)
[4] = Spacestar seed batch 11B314 (not cold sensitive)

Row | SMILES | Germination (%) ([1]; 0.001 mg l^−1) | Germination (%) ([1]; 0.01 mg l^−1) | Germination (%) ([1]; 0.1 mg l^−1) | Gmax (total germination as percentage of sown seeds) [2, 3] [%] | stimulation (extra germination compared to the DMSO treatment, as percentage of the germination in the DMSO treatment) [2, 3] [%] | Gmax (total germination as percentage of sown seeds) [2, 4] [%] | stimulation (extra germination compared to the DMSO treatment, as percentage of the germination in the DMSO treatment) [2, 4] [%]
1 | CC1=C[C@H](O/C=C2/C(=O)N[C@@H]3c4ccsc4C[C@H]23)OC1=O (racemic) [Compound A3, (3aR*,8bS*)-(3E)-3-[(2R)(4-methyl-5-oxo-2H-furan-2-yl)oxymethylene]-3,3a,4,8b-tetrahydro-1H-thioindeno[1,2-b]pyrrol-2-one] | 87.8 | 85.6 | 84.6 | 75.0 | 38.9 | 94.0 | 9.3
2 | CC1=C[C@H](O/C=C2/C(=O)O[C@@H]3c4ccccc4C[C@H]23)OC1=O [GR24] | 67 | 65 | 78.4 | 71.5 | 19.2 | 93.5 | 3.3
